Source: patent publication US5726159A, “Antithrombotic agents” (Eli Lilly and Company, priority 1995, dated 1998)
Counter-ions that a name gives are not always drawn.

Legend:
Format in all cases: biochemical
human thrombin = human thrombin (Homo sapiens, UniProt P00734); assay: Inhibition of thrombin amidase activity (Kass), chromogenic substrate; conditions: association constant, mean over concentrations
Bovine trypsin = target: T1, Bovine trypsin (Bos taurus, UniProt P00760); assay: Kass for trypsin, chromogenic substrate
T1 construct: Bovine trypsin is purchased from Worthington Biochemicals, Freehold, N.J; purchased Worthington Biochemicals, Freehold, N.J
T1 sequence (P00760 24-246): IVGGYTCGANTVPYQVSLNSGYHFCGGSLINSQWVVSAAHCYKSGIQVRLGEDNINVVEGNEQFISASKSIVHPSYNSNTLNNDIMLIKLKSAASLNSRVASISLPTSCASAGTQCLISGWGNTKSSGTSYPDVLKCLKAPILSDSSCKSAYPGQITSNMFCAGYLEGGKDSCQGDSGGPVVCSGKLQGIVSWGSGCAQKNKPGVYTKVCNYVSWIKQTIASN
Description: (§1) By substantially following the procedures described above for human thrombin, and using other human blood coagulation system serine proteases and proteases of the fibrinolytic system with the appropriate chromogenic substrates, identified below, selectivity of the compounds of the present invention with respect to the coagulation factor serine proteases and with respect to the fibrinolytic system serine proteases are evaluated as well as their substantial lack of interference with serine proteases of the fibrinolytic system. […] This would be important to the therapeutic use of such agents as an adjunct to streptokinase, t-PA or urokinase thrombolytic therapy and to the use of such agents as an endogenous fibrinolysis-sparing (with respect to t-PA and urokinase) antithrombotic agent. In addition to the lack of interference with the amidase activity of the fibrinolytic proteases, such fibrinolytic system sparing can be studied by the use of human plasma clots and their lysis by the respective fibrinolytic plasminogen activators.
(§2) Chromogenic substrates: N-Benzoyl-Ile-Glu-Gly-Arg-p-nitroanilide (for factor Xa); N-Cbz-D-Arg-Gly-Arg-p-nitroanilide (for factor IXa assay as the factor Xa substrate); Pyroglutamyl-Pro-Arg-p-nitroanilide (for Factor XIa and for aPC); H-D-Pro-Phe-Arg-p-nitroanilide (for factor XIIa); and Pyroglutamyl-Gly-Arg-p-nitroanilide (for urokinase); are purchased from KabiVitrnm, Stockholm, Sweden, or from Midwest Biotech, Fishers, Ind. Bovine trypsin is purchased from Worthington Biochemicals, Freehold, N.J., and human plasma kallikrein from Kabi Vitrum, Stockholm, Sweden. Chromogenic substrate H-D-Pro-Phe-Arg-p-nitroanilide for plasma kallikrein is purchased from Kabi Vitrum, Stockholm, Sweden. N-Benzoyl-Phe-Val-Arg-p-nitroanilide, the substrate for human thrombin and for trypsin, is synthesized according to procedures described above for the compounds of the present invention, using known methods of peptide coupling from commercially available reactants or purchased from Midwest Biotech, Fishers, Ind.

t-PA = target: T2, t-PA (Homo sapiens, UniProt P00750); assay: Kass for t-PA, chromogenic substrate
T2 construct: purchased American Diagnostica, Greenwich, Conn
T2 sequence (P00750 36-562): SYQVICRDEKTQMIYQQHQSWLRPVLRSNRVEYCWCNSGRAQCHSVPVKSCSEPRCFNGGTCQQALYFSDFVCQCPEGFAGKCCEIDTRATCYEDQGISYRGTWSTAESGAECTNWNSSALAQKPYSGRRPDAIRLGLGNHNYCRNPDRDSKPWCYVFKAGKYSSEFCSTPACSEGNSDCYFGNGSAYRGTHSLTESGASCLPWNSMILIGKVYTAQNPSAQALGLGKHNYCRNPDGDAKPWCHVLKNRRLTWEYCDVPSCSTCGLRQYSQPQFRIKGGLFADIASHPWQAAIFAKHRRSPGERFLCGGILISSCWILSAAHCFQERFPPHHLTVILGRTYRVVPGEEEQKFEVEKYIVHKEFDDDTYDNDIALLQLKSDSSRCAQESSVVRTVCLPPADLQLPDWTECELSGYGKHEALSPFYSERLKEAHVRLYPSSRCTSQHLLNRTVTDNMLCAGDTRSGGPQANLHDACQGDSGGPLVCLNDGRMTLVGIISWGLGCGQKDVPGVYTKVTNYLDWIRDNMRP
Description: as §1

Human plasma [1] = assay: Human plasma anticoagulation, thrombin time (TT); conditions: concentration required to double the clotting time
Description: (§3) Dog plasma and rat plasma is obtained from conscious mixed-breed hounds (either sex, Hazelton-LRE, Kalamazoo, Mich., U.S.A.) or from anesthetized male Sprague-Dawley rats (Harlan Sprague-Dawley, Inc., Indianapolis, Ind., U.S.A.) by venipuncture into 3.8 percent citrate. Fibrinogen is prepared from in-date ACD human blood as the fraction I-2 according to previous procedures and specifications. […] Human fibrinogen is also purchased as 98 percent pure/plasmin free from American Diagnostica, Greenwich, Conn. Coagulation reagents ACTIN, Thromboplastin, and Human plasma are from Baxter Healthcare Corp., Dade Division, Miami, Fla. Bovine thrombin from Parke-Davis ([…], Mich.) is used for coagulation assays in plasma.
(§4) Coagulation assay procedures are as previously described. […] A CoAScreener coagulation instrument (American LABor, Inc.) is used for all coagulation assay measurements. The prothrombin time (PT) is measured by adding 0.05 mL saline and 0.05 mL Thromboplastin-C reagent to 0.05 mL test plasma. The activated partial thromboplastin time (APTT) is measured by incubation of 0.05 mL test plasma with 0.05 mL Actin reagent for 120 seconds followed by 0.05 mL CaCl2 (0.02M). The thrombin time (TT) is measured by adding 0.05 mL saline and 0.05 mL thrombin (10 NIH units/mL) to 0.05 mL test plasma. The compounds of Formula I are added to human or animal plasma over a wide range of concentrations to determine prolongation effects on the APTT, PT, and TT assays. Linear extrapolations are performed to estimate the concentrations required to double the clotting time for each assay.

Human plasma [2] = assay: Human plasma anticoagulation, activated partial thromboplastin time (APTT); conditions: concentration required to double the clotting time
Description: as §3, §4

Human plasma [3] = assay: Human plasma anticoagulation, prothrombin time (PT); conditions: concentration required to double the clotting time
Description: as §3, §4

factor Xa = factor Xa (Homo sapiens, UniProt P00742); assay: Kass for factor Xa, chromogenic substrate
Sequence of factor Xa (P00742 235-488 limits assumed): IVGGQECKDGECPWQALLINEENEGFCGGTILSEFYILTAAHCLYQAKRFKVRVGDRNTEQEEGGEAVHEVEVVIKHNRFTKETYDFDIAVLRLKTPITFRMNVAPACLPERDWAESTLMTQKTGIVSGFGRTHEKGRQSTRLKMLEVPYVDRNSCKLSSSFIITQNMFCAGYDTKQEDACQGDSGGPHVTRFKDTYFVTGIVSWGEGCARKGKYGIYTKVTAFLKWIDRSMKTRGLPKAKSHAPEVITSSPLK
Sequence of factor Xa (P00742 41-179 partner limits assumed): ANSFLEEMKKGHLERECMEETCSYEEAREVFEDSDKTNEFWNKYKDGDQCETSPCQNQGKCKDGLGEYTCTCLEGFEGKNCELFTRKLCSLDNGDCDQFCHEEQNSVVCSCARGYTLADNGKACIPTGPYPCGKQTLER
Description: as §1, §2

| Kass Xa (factor Xa) | Compound | Kass Human Thrombin (human thrombin) | Kass Trypsin (Bovine trypsin) | Kass t-PA (t-PA) | 2x Clotting time TT (Human plasma [1]) | 2x Clotting time APTT (Human plasma [2]) | 2x Clotting time PT (Human plasma [3]) |
| --- | --- | --- | --- | --- | --- | --- | --- |
| – | N=C(N)c1ccc(CNC(=O)[C@@H]2C[C@@H]3CCCC[C@@H]3N2C(=O)[C@@H]2NCC[C@@H]3CCCC[C@@H]32)cc1 (relative stereo) [Example 42, D-1-Piq-cis-Ohi-p-NHCH2 C6 H4 C(NH)NH2.2HCl] | 38. × 10^6 (L/mole) | 43. × 10^6 (L/mole) | 0.01 × 10^6 (L/mole) | 20 ng/mL | 270 ng/mL | 320 ng/mL |
| – | N=C(N)c1ccc(CNC(=O)[C@@H]2C[C@@H]3CCCC[C@@H]3N2C(=O)[C@H]2C[C@H]3CCCC[C@H]3CN2)cc1 (relative stereo) [Example 43, D-3-Piq-cis-Ohi-p-NHCH2 C6 H4 C(NH)NH2.2HCl] | – | 100. × 10^6 (L/mole) | 0.01 × 10^6 (L/mole) | 280 ng/mL | 1,100 ng/mL | 930 ng/mL |
| – | CCS(=O)(=O)N[C@H](Cc1ccccc1)C(=O)N1[C@H](C(=O)NCc2ccc(C(=N)N)cc2)C[C@@H]2CCCC[C@@H]21 (relative stereo) [Example 45, EtSO2 -Phe-cis-Ohi-p-NHCH2 C6 H4 C(NH)NH2.HCl] | – | 110. × 10^6 (L/mole) | – | 8 ng/mL | 200 ng/mL | 330 ng/mL |
| – | N=C(N)c1ccc(CNC(=O)[C@@H]2C[C@@H]3CCCC[C@@H]3N2C(=O)[C@@H](Cc2ccccc2)NCC(=O)O)cc1 (relative stereo) [Example 47, HOOCCH2 -D-Phe-cis-Ohi-p-NHCH2 C6 H4 C(NH)NH2.HCl] | – | 82. × 10^6 (L/mole) | 0.01 × 10^6 (L/mole) | 12. ng/mL | 140 ng/mL | 270 ng/mL |
| – | N=C(N)c1ccc(CNC(=O)[C@@H]2C[C@@H]3CCCC[C@@H]3N2C(=O)[C@@H](CC2CCCCC2)NCC(=O)O)cc1 (relative stereo) [Example 49, HOOCCH2 -D-Cha-cis-Ohi-p-NHCH2 C6 H4 C(NH)NH2.HCl] | – | 940. × 10^6 (L/mole) | – | 5 ng/mL | 130 ng/mL | 130 ng/mL |
| – | N=C(N)NCCCCCNC(=O)[C@@H]1CCCN1C(=O)[C@H](N)Cc1ccccc1 [Example 6, D-Phe-Pro-NH(CH2)5 NHC(NH)NH2.HCl] | – | – | < 0.001 | 390 ng/mL | – | – |
| – | N=C(N)c1cccc(CNC(=O)[C@@H]2CCCN2C(=O)[C@@H]2NCC[C@@H]3CCCC[C@@H]32)c1 [Example 25, D-1-Piq-Pro-m-NHCH2 -C6 H4 C(=NH)NH2.HCl] | – | – | 0.01 × 10^6 (L/mole) | 1,430 ng/mL | 34,600 ng/mL | 40,400 ng/mL |
| – | CCS(=O)(=O)N[C@H](Cc1ccccc1)C(=O)N1CCC[C@H]1C(=O)NCCc1ccc(C(=N)N)cc1 [Example 26, EtSO2 -D-Phe-Pro-p-NHCH2 CH2 -C6 H4 C(=NH)NH2.HCl] | 13. × 10^6 (L/mole) | – | 0.01 × 10^6 (L/mole) | 37 ng/mL | 870 ng/mL | 750 ng/mL |
| – | N=C(N)c1ccc(CCCNC(=O)[C@@H]2CCCN2C(=O)[C@@H]2NCC[C@@H]3CCCC[C@@H]32)cc1 [Example 32, 1-Piq-Pro-p-NHCH2 CH2 CH2 -C6 H4 C(=NH)NH2.HCl] | – | – | 0.01 × 10^6 (L/mole) | 3,100 ng/mL | 28,500 ng/mL | 47,800 ng/mL |
| – | CCS(=O)(=O)N[C@H](Cc1ccccc1)C(=O)N1CCC[C@H]1C(=O)NCc1ccc(NC(=N)N)cc1 [Example 34, EtSO2 -D-Phe-Pro-p-NHCH2 C6 H4 NHC(NH)NH2.HCl] | – | – | 0.01 × 10^6 (L/mole) | 530 ng/mL | 4,900 ng/mL | 5,500 ng/mL |
| < 0.009 × 10^6 (L/mole) | CCS(=O)(=O)N[C@H](Cc1ccccc1)C(=O)N1CCC[C@H]1C(=O)NCCc1cccc(NC(=N)N)c1 [Example 37, EtSO2 -D-Phe-Pro-m-NHCH2 CH2 C6 H4 NHC(NH)NH2.HCl] | – | – | – | > 9,000 ng/mL | > 9,000 ng/mL | > 9,000 ng/mL |
| – | N=C(N)c1ccc(CNC(=O)[C@@H]2CCCN2C(=O)[C@@H](CC2CCCCC2)NCC(=O)O)cc1 [Example 48, HOOCCH2 -D-Cha-Pro-p-NHCH2 C6 H4 C(NH)NH2.HCl] | – | 250. × 10^6 (L/mole) | – | 2. ng/mL | 33 ng/mL | 59 ng/mL |
| – | N=C(N)c1ccc(CNC(=O)[C@@H]2CCCN2C(=O)[C@H](N)CC2CCCCC2)cc1 [Example 51, D-Cha-Pro-p-NHCH2 C6 H4 C(NH)NH2.2HCl] | – | 27. × 10^6 (L/mole) | 0.01 × 10^6 (L/mole) | 2 ng/mL | 48 ng/mL | 110 ng/mL |
| – | N=C(N)c1ccc(CNC(=O)[C@@H]2CCCN2C(=O)[C@@H](CC2CCCCC2)NCCC(=O)O)cc1 [Example 52, HOOCCH2 CH2 -D-Cha-Pro-p-NHCH2 C6 H4 C(NH)NH2.HCl] | – | 47. × 10^6 (L/mole) | 0.01 × 10^6 (L/mole) | 6 ng/mL | 80 ng/mL | 170 ng/mL |
| – | N=C(N)c1ccc(CNC(=O)[C@@H]2CCCN2C(=O)[C@@H](CC2CCCCC2)NCC(=O)O)c(F)c1 [Example 71, HO2 CCH2 -D-Cha-Pro-4-NHCH2 -3-F-benzamidine.HCl] | – | 240. × 10^6 (L/mole) | – | 1 ng/mL | 89 ng/mL | 150 ng/mL |
| – | CCS(=O)(=O)N[C@H](CC1CCCCC1)C(=O)N1CCC[C@H]1C(=O)NCc1ccc(C(=N)N)cc1 [Example 80, EtSO2 -D-Cha-Pro-4-NHCH2 C6 H4 C(NH)NH2.HCl] | – | 90. × 10^6 (L/mole) | – | 4 ng/mL | 40 ng/mL | 130 ng/mL |
| – | D-hPro-Pro-p-NHCH2 C6 H4 C(NH)NH2.HCl [Example 17] | – | – | – | 26 ng/mL | 370 ng/mL | 400 ng/mL |
| – | HO2 CCH2 -D-Cha-Pro-4-NHCH2 -2-amidinothiophene.HCl [Example 65] | 4,500 × 10^6 (L/mole) | 570. × 10^6 (L/mole) | – | 1 ng/mL | 48 ng/mL | – |
| – | HOOCCH2 -D-Phe-Pro-p-NHCH2 C6 H4 C(NH)NH2.HCl [Example 46] | – | 48. | 0.01 | 2. ng/mL | 67 ng/mL | 77 ng/mL |
| – | HOOCCH2 -D-hPhe-Pro-p-NHCH2 C6 H4 C(NH)NH2.HCl [Example 87] | – | – | – | 9 ng/mL | 260 ng/mL | 310 ng/mL |
| – | NMI-D-Phe-Pro-Agm.HCl [Example 4] | 13. × 10^6 (L/mole) | – | – | 230 ng/mL | – | – |
